# Laboratory results: patent US20090270407A1, “FUNGICIDAL ISOXAZOLIDINES” (E. I. DU PONT DE NEMOURS AND COMPANY, priority 2008, published 2009)
# How the values were obtained:
# Details in all cases: 200 ppm; 100 = 100 % disease control, 0 = no disease control relative to controls
# [1] = tested on: Erysiphe graminis f. sp. tritici; test: Test A: wheat powdery mildew, preventive spray on wheat seedlings, visual disease rating
# [2] = tested on: Puccinia recondita f. sp. tritici; test: Test B: wheat leaf rust, preventive spray on wheat seedlings, visual disease rating
# Text: General protocol for preparing test suspensions for Tests A-I: The test compounds were first dissolved in acetone in an amount equal to 3% of the final volume and then suspended at the desired concentration (in ppm) in acetone and purified water (50/50 mix) containing 250 ppm of the surfactant Trem® 014 (polyhydric alcohol esters). The resulting test suspensions were then used in Tests A-I. Spraying a 200 ppm test suspension to the point of run-off on the test plants was the equivalent of a rate of 500 g/ha.
# The test suspension was sprayed to the point of run-off on wheat seedlings. The following day the seedlings were inoculated with a spore suspension of Puccinia recondita f. sp. tritici (the causal agent of wheat leaf rust) and incubated in a saturated atmosphere at 20° C. for 24 h, and then moved to a growth chamber at 20° C. for 7 days, after which time visual disease ratings were made.
# All results are for 200 ppm except where followed by “*” which indicates 40 ppm.
# Botrytis cinerea = test: Test E: tomato Botrytis, preventive spray on tomato seedlings, visual disease rating
# Septoria nodorum = test: Test C: wheat glume blotch, preventive spray on wheat seedlings, visual disease rating
# Alternaria solani = test: Test F: tomato early blight, preventive spray on tomato seedlings, visual disease rating
# Septoria tritici = test: Test D: wheat leaf blotch, preventive spray on wheat seedlings, visual disease rating; format: in vivo
# Text: A dash (−) indicates no test results.
smiles,measurement,setting,value
CN1OC(C)(c2cccnc2)CC1c1ccccc1F (stereo not drawn) [Compound 79],Test A disease control rating,[1],0%
same,Test B disease control rating,[2],27%
same,Test E disease control rating,Botrytis cinerea,0%
same,Test C disease control rating,Septoria nodorum,22%
same,Test F disease control rating,Alternaria solani,0%
same,Test D disease control rating,Septoria tritici,7%
CN1OC(C)(c2cccnc2)CC1c1ccc(F)c(F)c1 (stereo not drawn) [Compound 81],Test A disease control rating,[1],56%
same,Test B disease control rating,[2],0%
same,Test E disease control rating,Botrytis cinerea,78%
same,Test C disease control rating,Septoria nodorum,0%
same,Test F disease control rating,Alternaria solani,0%
same,Test D disease control rating,Septoria tritici,15%
CN1OC(C)(c2cccnc2)CC1c1ccc(F)c(F)c1 (stereo not drawn) [Compound 82],Test A disease control rating,[1],0%
same,Test B disease control rating,[2],18%
same,Test E disease control rating,Botrytis cinerea,0%
same,Test C disease control rating,Septoria nodorum,0%
same,Test F disease control rating,Alternaria solani,0%
same,Test D disease control rating,Septoria tritici,40%
CN1OC(C)(c2cccnc2)CC1c1ccc(Br)cc1Br (stereo not drawn) [Compound 83],Test A disease control rating,[1],98%
same,Test B disease control rating,[2],0%
same,Test E disease control rating,Botrytis cinerea,82%
same,Test C disease control rating,Septoria nodorum,81%
same,Test F disease control rating,Alternaria solani,56%
same,Test D disease control rating,Septoria tritici,91%
CN1OC(C)(c2cccnc2)CC1c1ccc(Br)cc1Br (stereo not drawn) [Compound 84],Test A disease control rating,[1],94%
same,Test B disease control rating,[2],27%
same,Test E disease control rating,Botrytis cinerea,43%
same,Test C disease control rating,Septoria nodorum,60%
same,Test F disease control rating,Alternaria solani,0%
same,Test D disease control rating,Septoria tritici,52%
COc1cc(Br)ccc1C1CC(C)(c2cccnc2)ON1C (stereo not drawn) [Compound 85],Test A disease control rating,[1],90%
same,Test B disease control rating,[2],0%
same,Test E disease control rating,Botrytis cinerea,0%
same,Test C disease control rating,Septoria nodorum,64%
same,Test F disease control rating,Alternaria solani,92%
same,Test D disease control rating,Septoria tritici,89%
COc1cc(Br)ccc1C1CC(C)(c2cccnc2)ON1C (stereo not drawn) [Compound 86],Test A disease control rating,[1],91%
same,Test B disease control rating,[2],9%
same,Test E disease control rating,Botrytis cinerea,0%
same,Test C disease control rating,Septoria nodorum,0%
same,Test F disease control rating,Alternaria solani,0%
same,Test D disease control rating,Septoria tritici,76%
CN1OC(C)(c2cccnc2)CC1c1cccc2c1OC(F)(F)O2 (stereo not drawn) [Compound 91],Test A disease control rating,[1],0%
same,Test B disease control rating,[2],0%
same,Test E disease control rating,Botrytis cinerea,0%
same,Test C disease control rating,Septoria nodorum,0%
same,Test F disease control rating,Alternaria solani,0%
same,Test D disease control rating,Septoria tritici,0%
CN1OC(C)(c2cccnc2)CC1c1ccccc1Cl (stereo not drawn) [Compound 92],Test A disease control rating,[1],0%
same,Test B disease control rating,[2],0%
same,Test E disease control rating,Botrytis cinerea,0%
same,Test C disease control rating,Septoria nodorum,0%
same,Test F disease control rating,Alternaria solani,0%
same,Test D disease control rating,Septoria tritici,22%
CN1OC(C)(c2cccnc2)CC1c1ccccc1Cl (stereo not drawn) [Compound 93],Test A disease control rating,[1],0%
same,Test B disease control rating,[2],0%
same,Test E disease control rating,Botrytis cinerea,0%
same,Test C disease control rating,Septoria nodorum,0%
same,Test F disease control rating,Alternaria solani,0%
same,Test D disease control rating,Septoria tritici,3%
CN1OC(C)(c2cccnc2)CC1c1cccc(F)c1 (stereo not drawn) [Compound 94],Test A disease control rating,[1],84%
same,Test B disease control rating,[2],0%
same,Test E disease control rating,Botrytis cinerea,0%
same,Test C disease control rating,Septoria nodorum,0%
same,Test F disease control rating,Alternaria solani,0%
same,Test D disease control rating,Septoria tritici,4%
